Columns and labels:
Assay in all cases: Eurofins kinase selectivity profile against 380 other human recombinant kinases (Table S2)
Format in all cases: biochemical
[1] = target: T1, 380 human recombinant protein kinases (Homo sapiens, UniProt Q9NRM7); details: LATS2(h), read-out: Inhibition rate
T1 construct: purchased Eurofins (Celle Lévescault)
T1 sequence (Q9NRM7 1-1088): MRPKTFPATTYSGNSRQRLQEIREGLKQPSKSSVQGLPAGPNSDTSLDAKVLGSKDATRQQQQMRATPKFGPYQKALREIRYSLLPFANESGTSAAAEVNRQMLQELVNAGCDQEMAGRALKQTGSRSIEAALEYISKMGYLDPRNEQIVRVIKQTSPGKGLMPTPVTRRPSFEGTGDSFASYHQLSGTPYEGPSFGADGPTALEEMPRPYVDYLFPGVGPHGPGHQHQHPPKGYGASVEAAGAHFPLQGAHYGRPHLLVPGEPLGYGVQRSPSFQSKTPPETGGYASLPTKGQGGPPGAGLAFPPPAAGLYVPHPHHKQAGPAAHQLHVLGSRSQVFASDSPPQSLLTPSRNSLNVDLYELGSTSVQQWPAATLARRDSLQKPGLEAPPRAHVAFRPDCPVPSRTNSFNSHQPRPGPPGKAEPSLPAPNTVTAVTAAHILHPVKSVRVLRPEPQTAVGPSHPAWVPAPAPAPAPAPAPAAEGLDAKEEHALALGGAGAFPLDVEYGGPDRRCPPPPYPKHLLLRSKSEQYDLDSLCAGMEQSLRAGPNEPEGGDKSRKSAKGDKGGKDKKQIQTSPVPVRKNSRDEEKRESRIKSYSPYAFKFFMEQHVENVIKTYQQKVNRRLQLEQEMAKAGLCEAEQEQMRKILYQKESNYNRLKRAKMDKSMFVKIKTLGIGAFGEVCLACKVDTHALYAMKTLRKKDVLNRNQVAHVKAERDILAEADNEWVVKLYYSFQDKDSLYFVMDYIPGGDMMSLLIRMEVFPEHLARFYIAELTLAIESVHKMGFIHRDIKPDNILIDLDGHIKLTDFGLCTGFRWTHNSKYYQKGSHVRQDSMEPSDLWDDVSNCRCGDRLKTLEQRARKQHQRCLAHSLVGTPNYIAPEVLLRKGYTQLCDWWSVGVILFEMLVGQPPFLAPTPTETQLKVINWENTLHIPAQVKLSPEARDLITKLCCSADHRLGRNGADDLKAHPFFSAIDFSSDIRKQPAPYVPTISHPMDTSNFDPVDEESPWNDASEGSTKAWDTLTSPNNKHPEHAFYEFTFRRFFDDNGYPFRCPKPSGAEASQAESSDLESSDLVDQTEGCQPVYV
Method in brief: (§1)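 Outsourced panel: 380 human recombinant kinases; inhibitor tested at various concentrations; purpose: MK2 selectivity check.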

[2] = target: T2, 380 human recombinant protein kinases (Homo sapiens, UniProt P45983); details: JNK1α1(h), read-out: Inhibition rate
T2 construct: purchased Eurofins (Celle Lévescault)
Method in brief: as §1

[3] = target: T3, 380 human recombinant protein kinases (Homo sapiens, UniProt P05771); details: PKCβI(h), read-out: Inhibition rate
T3 construct: purchased Eurofins (Celle Lévescault)
Method in brief: as §1

[4] = target: T4, 380 human recombinant protein kinases (Homo sapiens, UniProt P36888); details: Flt3(h), read-out: Inhibition rate
T4 construct: purchased Eurofins (Celle Lévescault)
T4 sequence (P36888 27-993): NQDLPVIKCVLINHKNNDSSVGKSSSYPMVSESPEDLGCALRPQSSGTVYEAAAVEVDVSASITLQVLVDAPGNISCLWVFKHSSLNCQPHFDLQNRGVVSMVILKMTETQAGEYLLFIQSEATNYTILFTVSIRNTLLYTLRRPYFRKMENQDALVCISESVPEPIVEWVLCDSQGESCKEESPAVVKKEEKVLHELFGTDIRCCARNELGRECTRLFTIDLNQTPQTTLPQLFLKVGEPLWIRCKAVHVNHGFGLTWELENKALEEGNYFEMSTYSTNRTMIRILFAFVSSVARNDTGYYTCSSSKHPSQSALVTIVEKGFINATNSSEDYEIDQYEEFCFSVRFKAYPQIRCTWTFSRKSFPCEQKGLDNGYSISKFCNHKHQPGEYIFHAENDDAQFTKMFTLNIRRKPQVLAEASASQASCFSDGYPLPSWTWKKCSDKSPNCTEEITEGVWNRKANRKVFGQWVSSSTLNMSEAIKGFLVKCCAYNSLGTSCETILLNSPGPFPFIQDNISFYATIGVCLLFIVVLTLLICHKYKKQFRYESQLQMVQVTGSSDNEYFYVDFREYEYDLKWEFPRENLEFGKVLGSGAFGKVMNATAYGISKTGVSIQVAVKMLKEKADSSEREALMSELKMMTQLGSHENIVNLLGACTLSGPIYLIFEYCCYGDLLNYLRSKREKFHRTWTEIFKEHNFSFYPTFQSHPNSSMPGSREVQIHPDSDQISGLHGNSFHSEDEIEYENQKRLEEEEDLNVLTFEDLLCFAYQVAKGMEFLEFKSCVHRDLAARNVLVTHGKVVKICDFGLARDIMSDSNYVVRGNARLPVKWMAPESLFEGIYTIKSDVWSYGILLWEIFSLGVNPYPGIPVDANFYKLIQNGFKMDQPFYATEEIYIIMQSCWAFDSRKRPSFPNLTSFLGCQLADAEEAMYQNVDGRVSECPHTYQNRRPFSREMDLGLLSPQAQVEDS
Method in brief: as §1

[5] = target: T5, 380 human recombinant protein kinases (Homo sapiens, UniProt Q6IQ55); details: TTBK2(h), read-out: Inhibition rate (%)
T5 construct: purchased Eurofins (Celle Lévescault)
Method in brief: as §1

T2 sequence (P45983 whole entry): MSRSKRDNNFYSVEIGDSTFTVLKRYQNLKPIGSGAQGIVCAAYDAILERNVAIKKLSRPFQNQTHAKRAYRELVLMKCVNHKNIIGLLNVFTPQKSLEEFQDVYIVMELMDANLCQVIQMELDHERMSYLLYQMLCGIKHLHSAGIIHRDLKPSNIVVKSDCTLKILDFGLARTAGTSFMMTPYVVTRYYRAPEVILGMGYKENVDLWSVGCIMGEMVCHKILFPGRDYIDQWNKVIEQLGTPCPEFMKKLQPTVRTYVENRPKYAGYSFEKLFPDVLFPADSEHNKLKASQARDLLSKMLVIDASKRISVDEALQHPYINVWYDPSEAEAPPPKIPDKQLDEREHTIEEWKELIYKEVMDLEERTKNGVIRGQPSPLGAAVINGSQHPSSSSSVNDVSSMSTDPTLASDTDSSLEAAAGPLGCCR
T3 sequence (P05771 whole entry): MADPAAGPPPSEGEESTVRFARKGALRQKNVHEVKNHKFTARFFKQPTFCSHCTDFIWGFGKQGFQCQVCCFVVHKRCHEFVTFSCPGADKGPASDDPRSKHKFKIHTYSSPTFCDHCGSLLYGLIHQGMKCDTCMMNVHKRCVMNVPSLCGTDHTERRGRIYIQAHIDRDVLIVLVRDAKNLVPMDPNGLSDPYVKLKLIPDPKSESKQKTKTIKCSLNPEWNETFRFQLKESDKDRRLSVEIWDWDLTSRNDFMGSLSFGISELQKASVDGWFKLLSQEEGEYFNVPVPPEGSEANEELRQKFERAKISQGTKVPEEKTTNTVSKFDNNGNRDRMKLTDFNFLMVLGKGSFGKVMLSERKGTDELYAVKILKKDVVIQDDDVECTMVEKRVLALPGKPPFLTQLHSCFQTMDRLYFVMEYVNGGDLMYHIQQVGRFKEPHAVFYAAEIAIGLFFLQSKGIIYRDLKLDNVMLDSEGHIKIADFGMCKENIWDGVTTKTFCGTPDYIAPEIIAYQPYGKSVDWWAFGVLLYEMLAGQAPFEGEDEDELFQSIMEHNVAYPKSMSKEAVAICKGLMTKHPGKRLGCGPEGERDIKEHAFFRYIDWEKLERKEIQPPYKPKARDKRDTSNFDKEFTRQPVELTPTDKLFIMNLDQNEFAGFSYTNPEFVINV
T5 sequence (Q6IQ55 whole entry): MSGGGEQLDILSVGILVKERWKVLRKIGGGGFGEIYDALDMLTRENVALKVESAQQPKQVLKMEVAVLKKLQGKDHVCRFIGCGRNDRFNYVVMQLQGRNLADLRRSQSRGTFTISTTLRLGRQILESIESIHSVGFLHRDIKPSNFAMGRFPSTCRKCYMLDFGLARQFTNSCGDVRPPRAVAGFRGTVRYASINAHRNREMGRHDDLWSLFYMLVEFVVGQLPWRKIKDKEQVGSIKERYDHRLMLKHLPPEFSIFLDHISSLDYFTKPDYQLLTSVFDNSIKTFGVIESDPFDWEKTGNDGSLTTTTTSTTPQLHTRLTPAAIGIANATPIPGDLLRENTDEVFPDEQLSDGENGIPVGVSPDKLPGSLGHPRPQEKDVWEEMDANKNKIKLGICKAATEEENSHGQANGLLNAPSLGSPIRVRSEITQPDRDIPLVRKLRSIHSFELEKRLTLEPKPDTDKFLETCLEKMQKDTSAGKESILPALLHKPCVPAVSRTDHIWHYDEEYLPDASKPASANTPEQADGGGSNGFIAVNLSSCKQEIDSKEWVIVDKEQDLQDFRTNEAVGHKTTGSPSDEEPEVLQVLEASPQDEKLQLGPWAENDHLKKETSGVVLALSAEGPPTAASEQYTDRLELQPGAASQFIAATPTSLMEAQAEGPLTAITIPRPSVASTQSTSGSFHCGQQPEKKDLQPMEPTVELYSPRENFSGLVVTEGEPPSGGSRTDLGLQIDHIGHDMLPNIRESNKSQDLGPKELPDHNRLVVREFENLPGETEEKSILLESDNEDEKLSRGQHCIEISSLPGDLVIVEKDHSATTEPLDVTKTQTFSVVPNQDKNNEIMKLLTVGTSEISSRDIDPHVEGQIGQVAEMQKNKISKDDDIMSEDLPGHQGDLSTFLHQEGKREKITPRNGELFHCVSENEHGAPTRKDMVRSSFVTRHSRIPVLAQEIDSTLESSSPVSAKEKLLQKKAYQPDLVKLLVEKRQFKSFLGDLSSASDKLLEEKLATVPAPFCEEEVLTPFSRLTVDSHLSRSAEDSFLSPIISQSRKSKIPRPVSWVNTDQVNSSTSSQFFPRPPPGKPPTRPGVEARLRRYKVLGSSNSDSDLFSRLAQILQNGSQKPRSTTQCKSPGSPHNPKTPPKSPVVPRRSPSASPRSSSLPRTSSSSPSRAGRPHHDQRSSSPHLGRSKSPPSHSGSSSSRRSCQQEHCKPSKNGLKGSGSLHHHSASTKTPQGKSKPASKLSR

Compound C=CC(=O)Nc1cc(-c2cc(-c3cc4c([nH]3)CCNC4=O)ccn2)ccc1OC(F)(F)F [compound 11] has an inhibition at 0.01 µM ([1]; 10 nM) of 1%, an inhibition at 0.1 µM ([1]; 100 nM) of 8% and an inhibition at 1 µM ([1]; 1000 nM) of 4%. The inhibition at 0.01 µM ([2]; 10 nM) was 2%, the inhibition at 0.1 µM ([2]; 100 nM) was 4% and the inhibition at 1 µM ([2]; 1000 nM) was 21%. For the same compound, the inhibition at 0.01 µM ([3]; 10 nM) was 3%, the inhibition at 0.1 µM ([3]; 100 nM) was 1% and the inhibition at 1 µM ([3]; 1000 nM) was -13%. It also gave an inhibition at 0.01 µM ([4]; 10 nM) of -12%, an inhibition at 0.1 µM ([4]; 100 nM) of -5% and an inhibition at 1 µM ([4]; 1000 nM) of 24%. The inhibition at 0.01 µM ([5]; 10 nM) was -1%, the inhibition at 0.1 µM ([5]; 100 nM) was -3% and the inhibition at 1 µM ([5]; 1000 nM) was 3%.
